Experimental data taken from patent US20070269420A1, “Compounds, Compositions and Methods for Treatment and Prophylaxis of Hepatitis C Viral Infections and Associated Diseases” (priority 2003, published 2007).
Where two headings read alike, the source gives them in different places.

What was measured:
[1] = tested on: HCV replicon (BB7 sequence) in Huh-7-Clone A cells; assay: HCV replicon NS5A ELISA, inhibition of viral RNA replication; type: cell-based, hepatitis C virus; conditions: Hepatitis C virus
Experimental: Antiviral activity of representative compounds of the invention was evaluated in a human liver-derived cell line (Huh-7-Clone A) containing the HCV replicon (BB7 sequence) (See Lohmann et al. Science. 1999, 285:110-3; Blight K J et al., Science. 2000, 290:1972-4; Pietschmann, T. et al., J. Virol. 2001, 73:1252-1264; and Lohmann, V. et al., J. Virol. 2001, 75:1437-1449). The HCV replicon is a subgenomic viral RNA that expresses the HCV proteins required for its own replication. These proteins include non-structural proteins NS3, NS4A, NS4B, NS5A and NS5B. The replicon also contains a foreign gene encoding a drug-selectable marker (neomycin phosphotransferase) to allow for G418 (neomycin) selection of cells that contain the replicon.
An ELISA (enzyme-linked immunosorbant assay) was used to determine the effect of compounds within the scope of the invention on the amount of HCV NS5A protein produced after a 72-hour incubation of the replicon-containing cells in the presence of varying concentrations of compound. Huh7-Clone A cells were seeded in 96-well plates at a subconfluent density (9000 cells/well) in medium containing 2% FBS and incubated for 4 hours to allow attachment to occur. HCV-086 (solubilized with 100% dimethylsulfoxide [DMSO]) was added to wells using an 8-point, 3-fold serial dilution series, with a final DMSO concentration of 1% in a total volume of 200 μL. Plates were incubated for 72 hours at 37° C. and 5% CO2. Under these conditions, the cells are approximately 25% confluent at the time of seeding and 80-90% confluent on day 3. COSTAR® 96-well cell culture plates were used but other known cell culture plates may be used. After incubation, media is removed from wells and the cells are fixed to the assay plate using 0.05% glutaraldehyde (Fisher # 02957-4). The glutaraldehyde is then washed off using phosphate-buffered saline (PBS) following a 1 hour incubation and cells are blocked for non-specific antibody binding using for example SUPERBLOCK® reagent (blocking buffer) in PBS. The blocking agent is rinsed from the cells with PBS after 1 hour at 37° C., and HCV NS5A monoclonal antibody (Virostat # 1873) is added to each well containing compound. Primary antibody is incubated for 1 hour at 37° C. and rinsed 3 times with PBS containing 0.02% TWEEN-20™ before addition of Horseradish Peroxidase (HRP) conjugated secondary antibody. HRP is incubated for 1 hour at 37° C. and rinsed several times, first with PBS/TWEEN-20™ followed by PBS alone. To quantify peroxidase activity, 3,3′,5,5′-tetramethylbenzidine (TMB) substrate is added to the plate and after 30 minutes, the plates are read in an ELISA plate reader at an OD of 650 nm.
Compound dose response was measured in an 8-point dose curve diluted serially to determine the inhibitory concentration at 50% (EC50 value). […] Ranges of 50% effective concentrations (EC50s) for the representative compounds within the scope of this invention are listed in Tables 1-8. Preferred compounds have 50% effective concentrations at about 30 μM or less, more preferred compounds have 50% effective concentrations at about 5 μM or less, and most preferred compounds have 50% effective concentrations at about 0.5 μM or less.

[2] = biological target: T1, HCV NS4B (Hepatitis C virus genotype 1b, UniProt Q9WMX2); assay: NS4B binding assay (quenching of intrinsic protein fluorescence)
T1 construct: NS4B was cloned, expressed and purified to establish an assay; made in house
From the text: NS4B was cloned, expressed and purified to establish an assay, which takes advantage of the intrinsic fluorescent properties of proteins and identifies compounds, which inhibit by a NS4B specific mechanism. This protein is necessary for viral replication. It is thought to act as an anchor securing the replication complex to cellular membranes, where replication is known to occur. Several other functions necessary for viral replication have also ascribed to NS4B.

[3] = Crystal Violet cellular toxicity in wild type replicon cells; type: cell-based; conditions: human
Experimental: (§1) Huh-7 cells (harboring no replicon) and wild type replicon cells were seeded onto a 96 well plate. All cells were subjected to increasing amounts of a representative compound of the invention, as described in the replicon ELISA protocol. In order to assess the cellular toxicity of a compound of Formula I in both Huh-7 cells (harboring no replicon) and wild type replicon, cells were stained with Crystal Violet (a nonspecific protein stain) after 72 hours. The […] values for cells lacking replicon were generally >100.0 μM in parental Huh-7 cells for each compound. […] In this case the cells' natural defenses are strengthened and apoptosis, a natural defense to viral infection, occurs. The Huh-7 cell line is the parental cell line harboring no HCV subgenomic replicon. In this cell line, the toxicity is reduced due to the fact that there is no NS4B for the compound to bind. If the cellular toxicity in cells comprising HCV replicons and in the parental Huh-7 cell line (no replicon) are the same, then they are effective in inhibiting HCV replication rather than the modulation of apoptosis.
(§2) During drug screening efforts to identify compounds having binding affinity for HCV NS4B, the triazinoindole class of compounds of Formula VII was identified. […] However a cellular toxicity (CC50) of 20 μM was also found. […]

[4] = tested on: genotype 1b (BB7 isolate) replicon-containing cells; assay: Selection of replicon variants under test compound; type: cell-based, hepatitis C virus; conditions: cell line passaged in the presence of 5 μM test compound for 7 passages
Experimental: To select for replicon variants, genotype 1b (BB7 isolate) replicon-containing cells were cultured and in the presence of 5 μM of the test compound for 7 passages. As a control, genotype 1b (BB7 isolate) replicon-containing cells were passaged in parallel, without the test compound. […] Total cellular RNA was extracted from both cell lines using Trizol Reagent (Invitrogen #15596-026) according to the manufacturer's protocol. NS5B cDNA was generated in a two-step RT-PCR reaction. PCR products were ligated into pPCR-Script Amp SK (+) (Stratagene #211188), transformed into E. coli, and sequenced.
The changes are as follows: K52R, G120V and A210S.

[5] = Crystal Violet cellular toxicity in parental cells harboring no replicon; type: cell-based; conditions: human, parental Huh-7 cells (harboring no replicon), 72-hour period, parental Huh-7 cells lacking replicon
Experimental: as §1, §2

[6] = Table 2, NS5A protein, 72-hour incubation, read-out: ELISA EC50
[7] = Table 2, pyrazolopyrimidine compounds, read-out: Kd
[8] = Table 5, NS5A protein, 72-hour incubation, read-out: ELISA EC50
[9] = Table 5, aminothiophene compounds, read-out: Kd
[10] = Table 1, NS5A protein, 72-hour incubation, read-out: ELISA EC50
[11] = Table 1, phenyl benzamide compounds, read-out: Kd
[12] = Table 7, NS5A protein, 72-hour incubation, read-out: ELISA EC50
[13] = Table 7, triazinoindole compounds, read-out: Kd
[14] = Table 6, phenylthiazolylamine compounds, read-out: Kd
[15] = Table 6, NS5A protein, 72-hour incubation, read-out: ELISA EC50

Compound: CCCc1cc(O)n2nc(-c3ccc(C)cc3)c(C)c2n1 [Example 1]
- EC50 [1, 6]: 2200 nM
- Kd [2, 7]: 5960 nM

Compound: COC(=O)c1c(NC(=O)c2ccc3c(c2)OCO3)sc(C(=O)NC2CCCCC2)c1C [Example 2]
- EC50 [1, 8]: 7600 nM
- Kd [2, 9]: 4000 nM

Compound: COc1ccc(C(=O)Nc2ccc(N3CCOCC3)c(Cl)c2)cc1Cl [Example 2]
- EC50 [1, 10]: 2500 nM
- Kd [2, 11]: 2320 nM

Compound: CCCCc1c(C)nn(-c2nnc3c4ccccc4n(CCOC)c3n2)c1C [Example 11]
- EC50 [1, 12]: 7000 nM
- Kd [2, 13]: 1000 nM

Compound: COc1ccc(OC)c(Nc2nc(-c3cccs3)cs2)c1 [Example 3]
- EC50 ([1]; 72 h, read-out: ELISA EC50): 2500 nM
- Kd [2, 14]: 570 nM

Compound: CCn1c2ccccc2c2nnc(-n3nc(C)c(C)c3C)nc21 [Example 5]
- EC50 [1, 12]: > 25000 nM
- Kd [2, 13]: 15600 nM

Compound: CC(C)Oc1cccc(C(=O)Nc2ccc(N3CCOCC3)c(Cl)c2)c1 [Example 3]
- EC50 [1, 10]: 3900 nM
- Kd [2]: 4430 nM

Compound: O=C(NC1CCCC1)c1cc2nc(-c3ccccc3)cc(C(F)(F)F)n2n1 [Example 2]
- EC50 [1, 6]: 1700 nM
- Kd [2, 7]: 4190 nM

Compound: Cc1nn(-c2nnc3c4ccccc4n(C)c3n2)c(C)c1C [Example 4]
- EC50 [1, 12]: > 25000 nM
- Kd [2, 13]: 14000 nM

Compound: CCCCc1c(C)nn(-c2nnc3c4ccccc4n(CCO)c3n2)c1C [Example 7]
- EC50 [1, 12]: > 25000 nM
- Kd [2, 13]: 2000 nM

Compound: CCc1c(C)nn(-c2nnc3c4ccccc4n(C)c3n2)c1C [Example 6]
- EC50 [1, 12]: > 25000 nM
- Kd [2, 13]: 7500 nM

Compound: CCCCc1c(C)nn(-c2nnc3c4ccccc4n(CC)c3n2)c1C [Example 1]
- CC50 ([3]; HCV subgenomic replicon cells, found alongside EC50 in the HCV subgenomic replicon system): 20000 nM
- CC50 at 72 h ([3]; Crystal Violet, 72-hour period, cells containing wild type replicons): 20000 nM
- reduced susceptibility to the compound [4]: over 10 fold
- EC50 ([1]; measured using the HCV subgenomic replicon system, read-out: EC50): 1200 nM
- CC50 at 72 h [5]: > 100000 nM

Compound: CCn1c2ccccc2c2nnc(-n3nc(C)c(-c4ccccc4)c3C)nc21 [Example 2]
- EC50 [1, 12]: 1000 nM
- Kd [2, 13]: 2200 nM

Compound: CCCCc1c(C)nn(-c2nnc3c(n2)[nH]c2ccccc23)c1C [Example 10]
- EC50 [1, 12]: > 25000 nM
- Kd [2, 13]: 3600 nM

Compound: CC(C)c1ccc(NC(=O)c2ccccc2)cc1 [Example 4]
- EC50 [1, 10]: 2800 nM
- Kd [2, 11]: 6900 nM

Compound: Cc1nccn1-c1nc(-c2ccc(Cl)cc2)cc(C(F)(F)F)n1 [Example 1]
- EC50 ([1]; Table 3, NS5A protein, 72-hour incubation, read-out: ELISA EC50): 2200 nM
- Kd ([2]; Table 3, trifluoromethylpyrimidine compound, read-out: Kd): 2060 nM

Compound: COC(=O)c1c(NC(=O)C(C)C)sc(C(=O)Nc2ccc(Cl)cc2)c1C [Example 3]
- EC50 [1, 8]: 1150 nM
- Kd [2]: 842 nM

Compound: CCCCc1c(C)nn(-c2nnc3c4ccccc4n(CCSC)c3n2)c1C [Example 12]
- EC50 [1, 12]: 10000 nM
- Kd [2, 13]: 1800 nM

Compound: CC(=O)c1ccc(NC(=O)c2cc3c(C)nn(-c4ccccc4)c3s2)cc1 [Example 1]
- EC50 ([1]; Table 4, NS5A protein, 72-hour incubation, read-out: ELISA EC50): 3150 nM
- Kd ([2]; Table 4, thienopyrazole compound, read-out: Kd): 1000 nM

Compound: COc1ccc(Cl)cc1Nc1nc(-c2cccnc2)cs1 [Example 1]
- EC50 [1, 15]: 1500 nM
- Kd [2, 14]: 1700 nM

Compound: CCC(C)c1ccc(NC(=O)c2ccccc2F)cc1 (stereo not shown) [Example 1]
- EC50 [1, 10]: 2700 nM
- Kd [2, 11]: 2530 nM

Compound: COC(=O)c1c(NC(=O)Cc2cccs2)sc(C(=O)Nc2ccc(Cl)cc2)c1C [Example 1]
- EC50 [1, 8]: 700 nM
- Kd [2, 9]: 304 nM

Compound: CC(=O)Nc1ccc(Nc2nc(-c3cccs3)cs2)cc1 [Example 2]
- EC50 [1, 15]: 11200 nM
- Kd [2, 14]: 6200 nM

Compound: CCC(=O)Nc1sc(C(=O)Nc2ccc(Cl)cc2)c(C)c1C(=O)OC [Example 5]
- EC50 [1, 8]: 4550 nM
- Kd [2, 9]: 2520 nM

Compound: CCCCc1c(C)nn(-c2nnc3c4ccccc4n(C)c3n2)c1C [Example 3]
- EC50 [1, 12]: 5800 nM
- Kd [2]: 4300 nM

Compound: CCCCc1c(C)nn(-c2nnc3c4ccccc4n(CCN(C(C)C)C(C)C)c3n2)c1C [Example 8]
- EC50 [1, 12]: 6550 nM
- Kd [2, 13]: 10300 nM

Compound: CCCCc1c(C)nn(-c2nnc3c4ccccc4n(CCN(CC)CC)c3n2)c1C [Example 9]
- EC50 [1, 12]: 5200 nM
- Kd [2, 13]: 1800 nM

Compound: CCC(=O)Nc1sc(C(=O)Nc2ccc(C)cc2)c(C)c1C(=O)OC [Example 4]
- EC50 [1, 8]: 3200 nM
- Kd [2, 9]: 1670 nM

Compound: O=C(NCc1cccs1)c1cc2nc(-c3ccco3)cc(C(F)(F)Cl)n2n1 [Example 3]
- EC50 [1, 6]: 630 nM
- Kd [2]: 662 nM
